From US20140315876A1, “BETA-LACTAMASE INHIBITORS” (priority 2013, published 2014)
Structures can show the parent of a compound that is named as a salt.

How the values were obtained:
[1] = system: bacterial strains that express the class D cephalosporinase OXA-15; assay: Synergy MIC / standard BLI potentiation MIC assay, strains expressing OXA-15; type: cell-based, E. coli; conditions: in the presence of a β-lactam; comparator Avibactam (comparator compound CCC)
Summary of the method: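 Broth microdilution in CAMHB per CLSI, ~10^5 CFU/mL, 18-20 h at 37° C; MIC is lowest concentration with no visible turbidity. Potentiation: β-lactam 128-0.13 μg/mL with BLI fixed at 4 μg/mL. Synergy: BLI serially diluted with β-lactam fixed. Engineered E. coli kept on 25 μg/mL tetracycline.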

[2] = system: bacterial strains that express KPC β-lactamases; assay: Synergy MIC / standard BLI potentiation MIC assay, strains expressing KPC β-lactamases; type: cell-based; conditions: more active for at least one KPC strain and/or better spectrum of activity than Avibactam; in the presence of a β-lactam
Protocol: The experimental protocol was performed according to Clinical and Laboratory Standards Institute (CLSI) guidelines with modifications as described below (CLSI guidelines can be derived from the CLSI document M07-A9 published in January 2012: “Methods for Dilution Antimicrobial Susceptibility Tests for Bacteria That Grow Aerobically; Approved Standard-Ninth Edition”).
To prepare for MIC testing, frozen glycerol stocks of clinical isolates (Klebsiella pneumoniae, Eschericia coli, Enterobacter spp, Citrobacter spp, or Pseudomonas aeruginosa) were used to streak for isolated colonies on rich, non-selective, tryptic soy agar containing 5% sheep's blood (TSAB). Frozen glycerol stocks of laboratory engineered, isogenic E. coli strains, which contain cloned β-lactamase expressing plasmids were used to streak for isolated colonies on rich, selective LB agar supplemented with 25 μg/mL tetracycline to maintain the plasmid. All strains were incubated at 37° C. for 18-24 hrs.
On the day of testing, primary cultures were started by scraping off 5-10 colonies from the TSAB plates containing clinical strains or the tetracycline supplemented LB plates containing engineered strains. The clinical strain material was suspended in ˜5 mL of cation adjusted Mueller Hinton Broth (CAMHB) in 14 mL culture tubes. The engineered strain material was suspended in CAMHB (supplemented with 25 μg/mL tetracycline) in 14 mL culture tubes. All strains were incubated at 37° C. with aeration (200 rpm) for ˜2 hrs until the optical density at 600 nm (OD600) was ≧0.1.
The two compound components of the assay were each diluted in CAMHB and added to the 96-well broth microdilution assay plates. 50 μL of the β-lactam was added to each well of the assay plate in 2-fold dilutions with final concentrations ranging from 128 to 0.13 μg/mL. 25 μL of the BLI compound was added to all wells in the broth microdilution plates at a final concentration of 4 μg/mL. Inoculum cultures were prepared by standardizing the primary cultures to OD600=0.1 and then adding 20 μL of the adjusted primary culture per 1 mL CAMHB for clinical strains or CAMHB (supplemented with tetracycline at 100 μg/mL) for engineered strains, so that the final inoculum density was ˜10^5 colony forming units per milliliter. Diluted inoculum cultures were used to inoculate 25 μL per well in 96-well broth microdilution assay plates. The final volume of each well was 100 μL and contained a β-lactam at different concentrations, a BLI compound at 4 μg/mL concentration, the bacterial culture at an OD600 of approximately 0.001 and when necessary tetracycline at 25 μg/mL.
Plates were incubated for 18-20 hours at 37° C. with aeration (200 rpm). Following incubation, growth was confirmed visually placing plates over a viewing apparatus (stand with a mirror underneath) and then OD600 was measured using a SpectraMax 340PC384 plate reader (Molecular Devices, Sunnyvale, Calif.). Growth was defined as turbidity that could be detected with the naked eye or achieving minimum OD600 of 0.1. MIC values were defined as the lowest concentration producing no visible turbidity.
The synergy MIC (sMIC) assay determines the concentration of the BLI required to potentiate the activity of a fixed concentration of a β-lactam antibiotic against β-lactamase producing bacterial strains. The experimental protocol was performed according to Clinical and Laboratory Standards Institute (CLSI) guidelines with modifications as described below (CLSI guidelines can be derived from the CLSI document M07-A9 published in January 2012: “Methods for Dilution Antimicrobial Susceptibility Tests for Bacteria That Grow Aerobically; Approved Standard-Ninth Edition”). […]

| SMILES | activity against bacterial strains that express the class D cephalosporinase OXA-15, compared with Avibactam [1] | activity and/or spectrum of activity against bacterial strains that express KPC β-lactamases, compared with Avibactam [2] |
| --- | --- | --- |
| N[C@@H]1CC[C@H](c2nnc([C@@H]3CC[C@@H]4CN3C(=O)N4OS(=O)(=O)O)o2)C1 [Compound 729, (2S,5R)-2-(5-((1S,3R)-3-aminocyclopentyl)-1,3,4-oxadiazol-2-yl)-7-oxo-1,6-diazabicyclo[3.2.1]octan-6-yl hydrogen sulfate] | more active than Avibactam | more active than Avibactam |
| N=C(N)NC1(Cc2nnc([C@@H]3CC[C@@H]4CN3C(=O)N4OS(=O)(=O)O)o2)CC1 [Compound 739, (2S,5R)-2-(5-((1-guanidinocyclopropyl)methyl)-1,3,4-oxadiazol-2-yl)-7-oxo-1,6-diazabicyclo[3.2.1]octan-6-yl hydrogen sulfate] | more active than Avibactam | more active than Avibactam |
| N=C(N)NCC(O)Cc1nnc([C@@H]2CC[C@@H]3CN2C(=O)N3OS(=O)(=O)O)o1 (stereo partly drawn) [Compound 730, (2S,5R)-2-(5-(3-guanidino-2-hydroxypropyl)-1,3,4-oxadiazol-2-yl)-7-oxo-1,6-diazabicyclo[3.2.1]octan-6-yl hydrogen sulfate] | more active than Avibactam | more active than Avibactam |
| O=C1N2C[C@@H](CC[C@H]2c2nnc(CCNCCO)o2)N1OS(=O)(=O)O [Compound 736, (2S,5R)-2-(5-(2-((2-hydroxyethyl)amino)ethyl)-1,3,4-oxadiazol-2-yl)-7-oxo-1,6-diazabicyclo[3.2.1]octan-6-yl hydrogen sulfate] | more active than Avibactam | more active than Avibactam |
| N=C(N)N[C@H]1C[C@@H](c2nnc([C@@H]3CC[C@@H]4CN3C(=O)N4OS(=O)(=O)O)o2)C1 [Compound 749, (2S,5R)-2-(5-((1s,3R)-3-guanidinocyclobutyl)-1,3,4-oxadiazol-2-yl)-7-oxo-1,6-diazabicyclo[3.2.1]octan-6-yl hydrogen sulfate] | more active than Avibactam | more active than Avibactam |
| N=C(N)N[C@H]1C[C@@H](c2nnc([C@@H]3CC[C@@H]4CN3C(=O)N4OS(=O)(=O)O)s2)C1 [Compound 784, (2S,5R)-2-(5-((1s,3R)-3-guanidinocyclobutyl)-1,3,4-thiadiazol-2-yl)-7-oxo-1,6-diazabicyclo[3.2.1]octan-6-yl hydrogen sulfate] | more active than Avibactam | more active than Avibactam |
| N=C(N)NCC1(c2nnc([C@@H]3CC[C@@H]4CN3C(=O)N4OS(=O)(=O)O)o2)CC1 [Compound 723, (2S,5R)-2-(5-(1-(guanidinomethyl)cyclopropyl)-1,3,4-oxadiazol-2-yl)-7-oxo-1,6-diazabicyclo[3.2.1]octan-6-yl hydrogen sulfate] | more active than Avibactam | more active than Avibactam |
| NCc1nnc([C@@H]2CC[C@@H]3CN2C(=O)N3OS(=O)(=O)O)o1 [Compound 702, (2S,5R)-2-(5-(aminomethyl)-1,3,4-oxadiazol-2-yl)-7-oxo-1,6-diazabicyclo[3.2.1]octan-6-yl hydrogen sulfate] | more active than Avibactam | more active than Avibactam |
| N=C(N)N1CC(Cc2nnc([C@@H]3CC[C@@H]4CN3C(=O)N4OS(=O)(=O)O)o2)C1 [Compound 741, (2S,5R)-2-(5-((1-carbamimidoylazetidin-3-yl)methyl)-1,3,4-oxadiazol-2-yl)-7-oxo-1,6-diazabicyclo[3.2.1]octan-6-yl hydrogen sulfate] | more active than Avibactam | more active than Avibactam |
| O=C1N2C[C@@H](CC[C@H]2c2nnc(C3CNC3)o2)N1OS(=O)(=O)O [Compound 708, (2S,5R)-2-(5-(azetidin-3-yl)-1,3,4-oxadiazol-2-yl)-7-oxo-1,6-diazabicyclo[3.2.1]octan-6-yl hydrogen sulfate] | more active than Avibactam | more active than Avibactam |
| O=C1N2C[C@@H](CC[C@H]2c2nnc(CCN3CCNCC3)o2)N1OS(=O)(=O)O [Compound 776, (2S,5R)-7-oxo-2-(5-(2-(piperazin-1-yl)ethyl)-1,3,4-oxadiazol-2-yl)-1,6-diazabicyclo[3.2.1]octan-6-yl hydrogen sulfate] | more active than Avibactam | more active than Avibactam |
| NCCCCc1nnc([C@@H]2CC[C@@H]3CN2C(=O)N3OS(=O)(=O)O)o1 [Compound 735, (2S,5R)-2-(5-(4-aminobutyl)-1,3,4-oxadiazol-2-yl)-7-oxo-1,6-diazabicyclo[3.2.1]octan-6-yl hydrogen sulfate] | more active than Avibactam | more active than Avibactam |
| O=C1N2C[C@@H](CC[C@H]2c2nnc(CCCNC3CCNCC3)o2)N1OS(=O)(=O)O [Compound 771, (2S,5R)-7-oxo-2-(5-(3-(piperidin-4-ylamino)propyl)-1,3,4-oxadiazol-2-yl)-1,6-diazabicyclo[3.2.1]octan-6-yl hydrogen sulfate] | more active than Avibactam | more active than Avibactam |
| O=C1N2C[C@@H](CC[C@H]2c2nnc(CCCC3CNC3)o2)N1OS(=O)(=O)O [Compound 743, (2S,5R)-2-(5-(3-(azetidin-3-yl)propyl)-1,3,4-oxadiazol-2-yl)-7-oxo-1,6-diazabicyclo[3.2.1]octan-6-yl hydrogen sulfate] | more active than Avibactam | more active than Avibactam |
| NC1CC(NCc2nnc([C@@H]3CC[C@@H]4CN3C(=O)N4OS(=O)(=O)O)o2)C1 (stereo partly drawn) [Compound 755, (2S,5R)-2-(5-(((3-aminocyclobutyl)amino)methyl)-1,3,4-oxadiazol-2-yl)-7-oxo-1,6-diazabicyclo[3.2.1]octan-6-yl hydrogen sulfate] | more active than Avibactam | more active than Avibactam |
